Test results as given in patent US9314020B2, “Microbicidal composition” (Dow Global Technologies LLC, priority 2012, dated 2016).

Columns and labels:
[1] = test system: Pseudomonas aeruginosa ATCC 10145, Aeromonas hydrophila ATCC 7965, and Myroides odoratus (Flavobacterium odoratum) NCIMB 13294; assay: Efficacy against aerobic bacteria in synthetic cooling water (4 h kill, TSB/Resazurin readout); assay type: cell-based; conditions: for Concentration (ppm a.i.) for complete bacterial kill in 4 hours: DBMAL: DBMAL alone or DBMAL part of DTEA/DBMAL blend; for Concentration (ppm a.i.) for complete bacterial kill in 4 hours: DBNPA: DBNPA alone or DBNPA part of DTEA/DBNPA blend
Method: (§1) The synergism of the biocides combination of the present invention was determined using the method described by Kull, F. C, et. al. in Applied Microbiology 9:538-541 (1961).
(§2) The formula to calculate the synergistic index (SI) is Qa/QA+Qb/QB=SI where
(§3) QA=concentration of compound A in ppm, acting alone produced an end point or if end point could not be established, the highest concentration tested will be used as the end point for the calculation and the SI will be recorded in “less than or <” values
(§4) Qa=concentration of compound A in ppm, in the mixture, which produced an end point
(§5) QB=concentration of compound B in ppm, acting alone produced an end point or if end point could not be established, the highest concentration tested will be used as the end point for the calculation and the SI will be recorded in “less than or <” values
Synthetic cooling water was generated as disclosed in Appendix A and dispensed into three 96-well plates. A stock solution of DBMAL from 12% liquid active (or DBNPA from a solid formulation as appropriate) and a stock solution of DTEA (in the hydrochloride form) derived from a liquid stock stored under anaerobic conditions were generated in the synthetic cooling water. In one 96-well biocide block, the stock solution of DBMAL (or DBNPA as listed) was added to the first row of the master block and diluted 1:1 by row until the testing range has been prepared. In a second 96-well biocide block, the stock solution of DTEA was added to the first column of the master block and diluted 1:1 by column until the testing range has been prepared. Biocides from each DBMAL row in the DBMAL biocide master block were added to the matching experimental row in a 3rd 96 well plate filled with synthetic cooling water. This was repeated, adding biocides from each DTEA column from the DTEA biocide master block to the matching experimental column Working quickly, the following organisms were added from a cell-suspension with an OD600 of ˜0.4 (approximately 1×10^8 cfu/ml) to final concentration of 1×10^7 cfu/ml in the first of the 96 well plates: Pseudomonas aeruginosa ATCC 10145, Aeromonas hydrophila ATCC 7965, and Myroides odoratus (Flavobacterium odoratum) NCIMB 13294. The resulting bacterial final concentration was 3×10^7 cfu/ml in the experimental 96 well block.
The experimental block was placed at 35° C., with the time of exposure started once the last well had been inoculated. At 4 hours, the experimental block was removed from the incubator, and 20 μl of treated cells from each row of the experimental block and were added to the first row of a 96-well plate pre-filled with TSB/Resazurin dye. Each sample from the first row of the TSB/Resazurin dye plate was diluted 1:10 six times by serial dilution moving down the plate by row. The inoculated TSB/Resazurin dye 96-well plate was placed at 35° C. for 24 hours, following that time data interpretation occurred. Color change from purple to pink indicates microbial metabolic activity and designates lack of cell death. Those wells were counted as “growth”. Failure to have color change from purple to pink indicates a lack of microbial metabolic activity and designates cell death. These were counted as “no growth”. […] The efficacy and synergy index of each combo were also included.
(§6) In order to differentiate DBMAL/DTEA combinations from DTEA/DBNPA combinations, DTEA/DBNPA combinations were also tested using the same test procedures and conditions described above.

[2] = test system: Desulfovibrio longus ATCC 51456; assay: Biocidal efficacy against anaerobic bacteria (2 h kill in deoxygenated salt solution); assay type: cell-based
Method: as §1, §2, §3, §4, §5
Inside an anaerobic chamber (BACTRON anaerobic chamber), a deoxygenated sterile salt solution (3.1183 g of NaCl, 1.3082 mg of NaHCO3, 47.70 mg of KCl, 72.00 mg of CaCl2, 54.49 mg of MgSO4, 172.28 mg of Na2SO4, 43.92 mg of Na2CO3 in 1 L water) was inoculated with Desulfovibrio longus ATCC 51456, a sulfate-reducing bacterium, to a final bacterial concentration of 10^7 to 10^8 CFU/mL. Aliquots of this cell suspension were then treated with DBMAL, DTEA (in the hydrochloride form), and DBMAL/DTEA blends, at selected active concentrations. After the treated cell suspensions were incubated at 35° C. for 2 hours, the biocidal efficacy was determined by minimum tested biocide concentration for 99.999% bacteria kill in the aliquots. Table 1 summarizes the efficacy of each biocide and their blends, and the Synergy Index (SI) of each combination.
as §6

## NC(=O)C(Br)(Br)C(N)=O [DBMAL alone, 2,2-dibromomalonamide]
[1]; experiment 1
  Concentration (ppm a.i.) for complete bacterial kill in 4 hours: DBMAL: 25.00 ppm a.i.
[1]; experiment 2
  Concentration (ppm a.i.) for complete bacterial kill in 4 hours: DBMAL: 25.00 ppm a.i.
[1]; experiment 3
  Concentration (ppm a.i.) for complete bacterial kill in 4 hours: DBMAL: 25.00 ppm a.i.
[1]; experiment 4
  Concentration (ppm a.i.) for complete bacterial kill in 4 hours: DBMAL: 50.00 ppm a.i.
[1]; DTEA/DBMAL blends, experiment 3
  Synergy Index: 1.00
[2]; DBMAL alone or DBMAL part of DTEA/DBMAL blend, 35° C., 2 hours, Table 1
  Concentration (ppm a.i.) for more than 99.999% bacterial kill in 2 hours: DBMAL: 100.00 ppm a.i.

## N#CC(Br)(Br)C(N)=O [DBNPA alone]
[1]; experiment 5
  Concentration (ppm a.i.) for complete bacterial kill in 4 hours: DBNPA: 6.25 ppm a.i.
[1]; experiment 6
  Concentration (ppm a.i.) for complete bacterial kill in 4 hours: DBNPA: 6.25 ppm a.i.
[1]; experiment 7
  Concentration (ppm a.i.) for complete bacterial kill in 4 hours: DBNPA: 6.25 ppm a.i.
[2]; DBNPA alone or DBNPA part of DTEA/DBNPA blend, Table 6
  Concentration (ppm a.i.) for more than 99.999% bacterial kill in 2 hours: DBNPA: 25.00 ppm a.i.

## CCCCCCCCCCSCCN.Cl [DTEA alone, 2-(decylthio)ethanamine hydrochloride]
[1]; DTEA alone or DTEA part of DTEA/DBMAL blend, experiment 1
  Concentration (ppm a.i.) for complete bacterial kill in 4 hours: DTEA: 12.50 ppm a.i.
[1]; DTEA alone or DTEA part of DTEA/DBMAL blend, experiment 2
  Concentration (ppm a.i.) for complete bacterial kill in 4 hours: DTEA: 25.00 ppm a.i.
[1]; DTEA alone or DTEA part of DTEA/DBMAL blend, experiment 3
  Concentration (ppm a.i.) for complete bacterial kill in 4 hours: DTEA: 25.00 ppm a.i.
[1]; DTEA alone or DTEA part of DTEA/DBMAL blend, experiment 4
  Concentration (ppm a.i.) for complete bacterial kill in 4 hours: DTEA: 100.00 ppm a.i.
[1]; DTEA alone or DTEA part of DTEA/DBNPA blend, experiment 5
  Concentration (ppm a.i.) for complete bacterial kill in 4 hours: DTEA: 50.00 ppm a.i.
[1]; DTEA alone or DTEA part of DTEA/DBNPA blend, experiment 6
  Concentration (ppm a.i.) for complete bacterial kill in 4 hours: DTEA: 100.00 ppm a.i.
[1]; DTEA alone or DTEA part of DTEA/DBNPA blend, experiment 7
  Concentration (ppm a.i.) for complete bacterial kill in 4 hours: DTEA: 50.00 ppm a.i.
[2]; DTEA alone or DTEA part of DTEA/DBMAL blend, 35° C., 2 hours, Table 1
  Concentration (ppm a.i.) for more than 99.999% bacterial kill in 2 hours: DTEA: 25.00 ppm a.i.
[2]; DTEA alone or DTEA part of DTEA/DBNPA blend, Table 6
  Concentration (ppm a.i.) for more than 99.999% bacterial kill in 2 hours: DTEA: 25.00 ppm a.i.
